Data reported in US20090197897A1, “Novel Oxadiazole Derivatives and Their Use as Positive Allosteric Modulators of Metabotropic Glutamate Receptors” (Addex Pharma SA, priority 2005, published 2009).

Assays:
rat mGluR5 = molecular target: T1, rat mGluR5 (Rattus norvegicus, UniProt P31424); assay: mGluR5 assay on HEK-expressing rat mGluR5 (fluorescent cell based Ca2+ mobilization assay); settings: HEK-293 cells stably expressing rat mGluR5; no co-addition of glutamate; mean of at least three independent experiments in duplicate; read-out: Ca++ Flux (mean EC50)
T1 construct: expressed in transfected cells
T1 sequence (P31424 21-1171 isoform P31424-2 limits assumed): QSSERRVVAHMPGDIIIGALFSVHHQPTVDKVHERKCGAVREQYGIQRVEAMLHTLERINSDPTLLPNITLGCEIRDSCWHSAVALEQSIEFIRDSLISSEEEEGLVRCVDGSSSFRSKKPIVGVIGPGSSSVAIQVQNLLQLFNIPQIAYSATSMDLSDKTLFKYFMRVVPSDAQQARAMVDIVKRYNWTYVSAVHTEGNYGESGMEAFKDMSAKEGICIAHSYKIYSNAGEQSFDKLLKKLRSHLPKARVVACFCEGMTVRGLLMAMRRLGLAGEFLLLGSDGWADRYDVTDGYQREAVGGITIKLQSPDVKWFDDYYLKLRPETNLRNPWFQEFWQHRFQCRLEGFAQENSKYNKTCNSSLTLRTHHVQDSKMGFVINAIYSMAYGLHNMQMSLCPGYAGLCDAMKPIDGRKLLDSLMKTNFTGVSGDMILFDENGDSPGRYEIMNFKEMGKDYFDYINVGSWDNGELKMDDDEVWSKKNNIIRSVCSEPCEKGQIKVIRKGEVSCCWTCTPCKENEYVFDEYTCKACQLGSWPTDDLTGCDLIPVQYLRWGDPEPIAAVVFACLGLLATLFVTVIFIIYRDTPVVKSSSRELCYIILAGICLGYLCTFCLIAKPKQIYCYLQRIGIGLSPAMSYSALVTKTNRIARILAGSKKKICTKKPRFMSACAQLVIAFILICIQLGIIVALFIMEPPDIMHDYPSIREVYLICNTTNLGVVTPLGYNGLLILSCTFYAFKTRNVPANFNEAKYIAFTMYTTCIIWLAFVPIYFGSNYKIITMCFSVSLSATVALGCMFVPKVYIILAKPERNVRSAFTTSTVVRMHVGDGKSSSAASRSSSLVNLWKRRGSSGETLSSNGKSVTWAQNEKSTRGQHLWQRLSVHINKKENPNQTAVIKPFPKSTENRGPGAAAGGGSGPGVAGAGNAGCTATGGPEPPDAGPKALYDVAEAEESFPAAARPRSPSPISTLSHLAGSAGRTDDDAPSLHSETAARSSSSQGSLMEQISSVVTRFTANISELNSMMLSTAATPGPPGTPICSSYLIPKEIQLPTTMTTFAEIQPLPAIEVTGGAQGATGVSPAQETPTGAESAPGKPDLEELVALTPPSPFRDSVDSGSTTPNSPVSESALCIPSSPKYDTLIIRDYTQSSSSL
Description: mGluR5 Assay on HEK-Expressing Rat mGluR5
Positive functional expression of HEK-293 cells stably expressing rat mGluR5 receptor was determined by measuring intracellular Ca^2+ changes using a Fluorometric Imaging Plate Reader (FLIPR, Molecular Devices, Sunnyvale, Calif.) in response to glutamate or selective known mGluR5 agonists and antagonists. Rat mGluR5 RT-PCR products in HEK-293 cells were sequenced and found 100% identical to rat mGluR5 Genbank reference sequence (NM_017012). HEK-293 cells expressing rmGluR5 were maintained in media containing DMEM, dialyzed Fetal Bovine Serum (10%), Glutamax™ (2 mM), Penicillin (100 units/ml), Streptomycin (100 μg/ml), Geneticin (100 μg/ml) and Hygromycin-B (40 μg/ml) at 37° C./5% CO2.
After one day of incubation, cells were washed with assay buffer containing: 142 mM NaCl, 6 mM KCl, 1 mM […], 1 mM CaCl2, 20 mM HEPES, 1 g/L glucose, 0.125 mM sulfinpyrazone, pH 7.4. After 60 min of loading with 4 uM Fluo-4 (TefLabs, Austin, Tex.), the cells were washed three times with 50 μl of PBS Buffer and resuspended in 45 μl of assay Buffer. The plates were then transferred to a Fluorometric Imaging Plate Reader (FLIPR, Molecular Devices, Sunnyvale, Calif.) for the assessment of intracellular calcium flux. After monitoring the baseline fluorescence for 10 seconds, increasing concentrations of representative compound (from 0.01 to 60 μM) of the present invention diluted in Assay Buffer (15 μl of 4× dilutions) was added to the cell. The final DMSO concentration in the assay was 0.3%. In each experiment, fluorescence was then monitored as a function of time for 3 minutes and the data analyzed using Microsoft Excel and GraphPad Prism. Each data point was also measured two times.
Under these experimental conditions, this HEK-rat mGluR5 cell line is able to directly detect positive allosteric modulators without the need of co-addition of glutamate or mGluR5 agonist.
The concentration-response curves of representative compounds of the present invention were generated using the Prism GraphPad software (Graph Pad Inc, San Diego, USA). The curves were fitted to a four-parameter logistic equation:
(Y=Bottom+(Top−Bottom)/(1+10̂((Log EC50−X)*Hill Slope)
allowing determination of EC50 values.
The Table 1 below represents the mean EC50 obtained from at least three independent experiments of selected molecules performed in duplicate.

| Compound | melting point [°C] | EC50 (rat mGluR5) [µM] |
| --- | --- | --- |
| O=C(c1ccc(F)cc1)N1CCCC1Cc1nc(-c2ccc(F)cc2)no1 (stereo not shown) [Example 2, (4-Fluoro-phenyl)-{2-[3-(4-fluoro-phenyl)-[1,2,4]oxadiazol-5-ylmethyl]-pyrrolidin-1-yl}-methanone] | 158 to 162 | 1 to 10 |
| O=C(c1cccnc1F)N1CCC[C@H](c2nc(-c3ccc(F)cc3)no2)C1 [Example 14, {(S)-3-[3-(4-Fluoro-phenyl)-[1,2,4]oxadiazol-5-yl]-piperidin-1-yl}-(2-fluoro-pyridin-3-yl)-methanone] | – | 1 to 10 |
| Cc1oncc1C(=O)N1CCC[C@H](c2nc(-c3ccsc3)no2)C1 [Example 44, (5-Methyl-isoxazol-4-yl)-[(S)-3-(3-thiophen-3-yl-[1,2,4]oxadiazol-5-yl)-piperidin-1-yl]-methanone] | – | < 1 |
| CNc1ccccc1C(=O)N1CCC[C@H](c2nc(-c3ccc(F)cc3)no2)C1 [Example 49, {(S)-3-[3-(4-Fluoro-phenyl)-[1,2,4]oxadiazol-5-yl]-piperidin-1-yl}-(2-methylamino-phenyl)-methanone] | – | 1 to 10 |
| Cc1occc1C(=O)N1CCC[C@H](c2nc(-c3ccc(F)cc3)no2)C1 [Example 24, {(S)-3-[3-(4-Fluoro-phenyl)-[1,2,4]oxadiazol-5-yl]-piperidin-1-yl}-(2-methyl-furan-3-yl)-methanone] | – | 1 to 10 |
| Cn1cccc1-c1noc([C@H]2CCCN(C(=O)c3ccc(F)cc3)C2)n1 [Example 39, (4-Fluoro-phenyl)-{(S)-3-[3-(1-methyl-1H-pyrrol-2-yl)-[1,2,4]oxadiazol-5-yl]-piperidin-1-yl}-methanone] | – | 1 to 10 |
| O=C(c1ccc(F)cc1F)N1CCC[C@H](c2nc(-c3ccccc3)no2)C1 [Example 59, (2,4-Difluoro-phenyl)-[(S)-3-(3-phenyl-[1,2,4]oxadiazol-5-yl)-piperidin-1-yl]-methanone] | – | < 1 |
| Cc1ncc(-c2noc([C@H]3CCCN(C(=O)c4ccc(F)cc4)C3)n2)s1 [Example 72, (4-Fluoro-phenyl)-{(S)-3-[3-(2-methyl-thiazol-5-yl)-[1,2,4]oxadiazol-5-yl]-piperidin-1-yl}-methanone] | – | 1 to 10 |
| Cc1ccoc1C(=O)N1CCC[C@H](c2nc(-c3ccc(F)cc3)no2)C1 [Example 30, (S)-{3-[3-(4-Fluoro-phenyl)-[1,2,4]oxadiazol-5-yl]-piperidin-1-yl}-(3-methyl-furan-2-yl)-methanone] | – | 1 to 10 |
| Cc1ncc(-c2noc([C@H]3CCCN(C(=O)c4ccc(F)cc4F)C3)n2)s1 [Example 74, (2,4-Difluoro-phenyl)-{(S)-3-[3-(2-methyl-thiazol-5-yl)-[1,2,4]oxadiazol-5-yl]-piperidin-1-yl}-methanone] | – | 1 to 10 |
| Cc1cccnc1-c1noc([C@H]2CCCN(C(=O)c3ccc(F)cc3)C2)n1 [Example 40, (4-Fluoro-phenyl)-{(S)-3-[3-(3-methyl-pyridin-2-yl)-[1,2,4]oxadiazol-5-yl]-piperidin-1-yl}-methanone] | – | > 10 |
| O=C(c1ccccc1NCc1ccccc1)N1CCC[C@H](c2nc(-c3ccc(F)cc3)no2)C1 [Example 55, (2-Benzylamino-phenyl)-{(S)-3-[3-(4-fluoro-phenyl)-[1,2,4]oxadiazol-5-yl]-piperidin-1-yl}-methanone] | – | > 10 |
| O=C(c1ccc(F)cc1F)N1CCC[C@H](c2nc(-c3ccccc3F)no2)C1 [Example 60, (2,4-Difluoro-phenyl)-{(S)-3-[3-(2-fluoro-phenyl)-[1,2,4]oxadiazol-5-yl]-piperidin-1-yl}-methanone] | – | < 1 |
| O=C(c1ccc(F)c(F)c1)N1CCC[C@H](c2nc(-c3ccc(F)cc3F)no2)C1 [Example 68, (3,4-Difluoro-phenyl)-{(S)-3-[3-(2,4-difluoro-phenyl)-[1,2,4]oxadiazol-5-yl]-piperidin-1-yl}-methanone] | – | < 1 |
| Cc1cc(F)ccc1C(=O)N1CCC[C@H](c2nc(-c3ccc(F)cc3)no2)C1 [Example 32, (4-Fluoro-2-methyl-phenyl)-{(S)-3-[3-(4-fluoro-phenyl)-[1,2,4]oxadiazol-5-yl]-piperidin-1-yl}-methanone] | – | < 1 |
| COc1ccsc1C(=O)N1CCC[C@H](c2nc(-c3ccc(F)cc3)no2)C1 [Example 31, {(S)-3-[3-(4-Fluoro-phenyl)-[1,2,4]oxadiazol-5-yl]-piperidin-1-yl}-(3-methoxy-thiophen-2-yl)-methanone] | – | > 10 |
| O=C(c1ccsc1Br)N1CCC[C@H](c2nc(-c3ccc(F)cc3)no2)C1 [Example 28, (S)-(2-Bromo-thiophen-3-yl)-{3-[3-(4-fluoro-phenyl)-[1,2,4]oxadiazol-5-yl]-piperidin-1-yl}-methanone] | – | 1 to 10 |
| O=C(c1c[nH]nc1C(F)(F)F)N1CCC[C@H](c2nc(-c3ccc(F)cc3)no2)C1 [Example 41, {(S)-3-[3-(4-Fluoro-phenyl)-[1,2,4]oxadiazol-5-yl]-piperidin-1-yl}-(3-trifluoromethyl-1H-pyrazol-4-yl)-methanone] | – | > 10 |
| Cc1cc(F)ccc1C(=O)N1CCC[C@H](c2nc(-c3ccncc3)no2)C1 [Example 53, (4-Fluoro-2-methyl-phenyl)-[(S)-3-(3-pyridin-4-yl-[1,2,4]oxadiazol-5-yl)-piperidin-1-yl]-methanone] | – | 1 to 10 |
| Cc1sccc1C(=O)N1CCC[C@H](c2nc(-c3ccc(F)cc3)no2)C1 [Example 36, {(S)-3-[3-(4-Fluoro-phenyl)-[1,2,4]oxadiazol-5-yl]-piperidin-1-yl}-(2-methyl-thiophen-3-yl)-methanone] | – | 1 to 10 |
| O=C(c1ccc(F)nc1)N1CCC[C@H](c2nc(-c3ccc(F)cc3F)no2)C1 [Example 66, {(S)-3-[3-(2,4-Difluoro-phenyl)-[1,2,4]oxadiazol-5-yl]-piperidin-1-yl}-(6-fluoro-pyridin-3-yl)-methanone] | – | < 1 |
| CNc1cc(F)ccc1C(=O)N1CCC[C@H](c2nc(-c3ccc(F)cc3)no2)C1 [Example 42, (4-Fluoro-2-methylamino-phenyl)-{(S)-3-[3-(4-fluoro-phenyl)-[1,2,4]oxadiazol-5-yl]-piperidin-1-yl}-methanone] | – | > 10 |
| Cc1oncc1C(=O)N1CCC[C@H](c2nc(-c3ccc(F)cc3F)no2)C1 [Example 65, {(S)-3-[3-(2,4-Difluoro-phenyl)-[1,2,4]oxadiazol-5-yl]-piperidin-1-yl}-(5-methyl-isoxazol-4-yl)-methanone] | – | 1 to 10 |
| O=C(c1ccc(F)nc1)N1CCC[C@H](c2nc(-c3ccccc3F)no2)C1 [Example 64, {(S)-3-[3-(2-Fluoro-phenyl)-[1,2,4]oxadiazol-5-yl]-piperidin-1-yl}-(6-fluoro-pyridin-3-yl)-methanone] | – | < 1 |
| Cc1cc(F)ccc1C(=O)N1CCC[C@H](c2nc(-c3ccccc3F)no2)C1 [Example 71, (4-Fluoro-2-methyl-phenyl)-{(S)-3-[3-(2-fluoro-phenyl)-[1,2,4]oxadiazol-5-yl]-piperidin-1-yl}-methanone] | – | 1 to 10 |
| O=C(c1ccc(F)nc1)N1CCC[C@H](c2nc(-c3ccccc3)no2)C1 [Example 62, (6-Fluoro-pyridin-3-yl)-[(S)-3-(3-phenyl-[1,2,4]oxadiazol-5-yl)-piperidin-1-yl]-methanone] | – | < 1 |
| O=C(c1ccoc1)N1CCC[C@H](c2nc(-c3ccc(F)cc3)no2)C1 [Example 22, {(S)-3-[3-(4-Fluoro-phenyl)-[1,2,4]oxadiazol-5-yl]-piperidin-1-yl}-furan-3-yl-methanone] | – | 1 to 10 |
